Assay results taken from patent US11858900B2, “Fluorinated 2-amino-4-(substituted amino)phenyl carbamate derivatives” (OcuTerra Therapeutics, Inc., priority 2016, dated 2024).
Read-outs that look alike come from different tables or passages of the source.

Key:
[1] = target: T1, human Kv7.2/7.3 channels (Homo sapiens, UniProt O43525+O43526); assay: Assessment of recombinantly expressed human Kv7.2/7.3 channel activation on SyncroPatch automated patch clamp platform; assay type: cell-based; conditions: for activation of Kv7.2/7.3 channels as measured by the SyncroPatch platform: FIGS. 2A-2G plots
T1 construct: expressed in transfected cells
Experimental: The in vitro effects of a compound of the present application recombinantly expressed human Kv7.2/7.3 channels are assessed on Syncropatch high throughput electrophysiology platform.
Cell Preparations: CHO cells stably expressing human Kv7.2/7.3 channels were cultured in Ham's F-12 media (Hyclone, Cat #SH30022.02) supplemented with 10% Fetal Bovine Serum, 1×MEM non-essential amino acids, and 400m/ml G418 at 37° C. in 5% CO2. On the day of Syncropatch, the cells were washed once in DPBS (Hyclone, Cat #SH30028.03) for approximately 30 seconds. […] 10 ml of cold media (Ham's F-12 media (Hyclone, Cat #SH30022.02) supplemented with 10% Fetal Bovine Serum, 1×MEM non-essential amino acids, and 400m/ml G418) was added to inactivate Trypsin. The cells were then triturated until a single cell suspension was achieved, and the cell count was performed. The cells were then diluted to a concentration of 5×10^5/ml and placed into the “cell hotel” on the deck of the Syncropatch at 10° C. for about 1 hour to recover. 40 μL of the cell suspension was dispensed into each well of a 384-well Syncropatch chip by the onboard pipettor at the beginning of each Syncropatch assay.
Eight-point dose response curves were created by performing semi-log serial dilutions from 10 mM compound stock solutions in 100% DMSO. […] Final DMSO concentration in the assay was 0.3%. Final assay test concentrations were 30 μM to 0.01 μM or 1 μM to 0.0003 μM. Negative (0.3% DMSO) and positive (30 μM ML213) controls were included in each test run to assess pharmacological responsiveness.
Assessment Protocol: Electrophysiological studies of the compounds were performed using the Nanion SyncroPatch automated patch clamp platform.
Kv7 channels were evaluated using a voltage protocol in which cells were voltage-clamped at a holding potential of −110 mV. Potassium currents were activated with a series of voltage steps from −110 mV to +50 mV in 10 mV intervals with 5.5 seconds between successive voltage steps. Each voltage step was 3 seconds in duration and immediately followed by a 1 second voltage step to −120 mV to generate an inward “tail” current to allow construction of activation (G-V) curves by plotting normalized peak tail current versus the potential of the activating voltage step.
Data Analysis: Data was collected on the Syncropatch platform using PatchControl software (Nanion) and processed and analyzed using DataControl Software (Nanion). Normalized percent activation was calculated and activation curves were fit with a Boltzmann function to determine the midpoint voltage of activation (G-V midpoint) for both pre-compound and post-compound conditions for each of the 384-wells of a sealchip with Pipeline Pilot (Accelrys). The difference in G-V midpoint between pre-compound and post-compound conditions (A V0.5) was plotted as a function of concentration and concentration-response curves were fit with a three-parameter logistic equation {Y=Bottom+(Top−Bottom)/(1+10^(Log EC50−X))} for determination of the EC50 (Graphpad Prism).

[2] = in vivo; cited from earlier work
[3] = concentration-dependent shift in G-V midpoint of activation, CHO cells stably expressing human Kv7.2/7.3, SyncroPatch, read-out: EC50 (95% CI)

T1 sequence (O43525 whole entry): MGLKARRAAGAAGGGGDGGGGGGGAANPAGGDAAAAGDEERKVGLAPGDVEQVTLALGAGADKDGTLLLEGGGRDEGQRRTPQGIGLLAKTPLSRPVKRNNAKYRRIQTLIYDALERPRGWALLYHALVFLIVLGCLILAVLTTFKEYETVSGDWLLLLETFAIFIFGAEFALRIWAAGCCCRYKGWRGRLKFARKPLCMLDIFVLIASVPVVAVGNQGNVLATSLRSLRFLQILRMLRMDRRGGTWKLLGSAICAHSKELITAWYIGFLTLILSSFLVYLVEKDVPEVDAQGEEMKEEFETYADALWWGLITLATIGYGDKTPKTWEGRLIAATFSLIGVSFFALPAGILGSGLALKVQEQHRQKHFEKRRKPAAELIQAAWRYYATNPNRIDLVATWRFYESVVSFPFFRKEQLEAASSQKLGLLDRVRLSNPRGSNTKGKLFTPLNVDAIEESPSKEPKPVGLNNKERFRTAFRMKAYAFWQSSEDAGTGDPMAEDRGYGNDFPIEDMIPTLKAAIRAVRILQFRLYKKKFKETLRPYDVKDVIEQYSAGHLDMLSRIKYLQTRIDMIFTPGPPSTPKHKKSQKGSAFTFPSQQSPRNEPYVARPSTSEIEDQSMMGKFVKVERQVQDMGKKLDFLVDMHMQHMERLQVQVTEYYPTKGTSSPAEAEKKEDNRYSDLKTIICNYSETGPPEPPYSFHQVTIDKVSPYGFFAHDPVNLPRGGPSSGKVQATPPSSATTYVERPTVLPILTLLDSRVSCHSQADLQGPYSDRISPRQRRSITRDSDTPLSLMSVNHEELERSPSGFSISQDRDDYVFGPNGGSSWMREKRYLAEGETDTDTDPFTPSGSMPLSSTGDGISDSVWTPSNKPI
T1 sequence (O43526 whole entry): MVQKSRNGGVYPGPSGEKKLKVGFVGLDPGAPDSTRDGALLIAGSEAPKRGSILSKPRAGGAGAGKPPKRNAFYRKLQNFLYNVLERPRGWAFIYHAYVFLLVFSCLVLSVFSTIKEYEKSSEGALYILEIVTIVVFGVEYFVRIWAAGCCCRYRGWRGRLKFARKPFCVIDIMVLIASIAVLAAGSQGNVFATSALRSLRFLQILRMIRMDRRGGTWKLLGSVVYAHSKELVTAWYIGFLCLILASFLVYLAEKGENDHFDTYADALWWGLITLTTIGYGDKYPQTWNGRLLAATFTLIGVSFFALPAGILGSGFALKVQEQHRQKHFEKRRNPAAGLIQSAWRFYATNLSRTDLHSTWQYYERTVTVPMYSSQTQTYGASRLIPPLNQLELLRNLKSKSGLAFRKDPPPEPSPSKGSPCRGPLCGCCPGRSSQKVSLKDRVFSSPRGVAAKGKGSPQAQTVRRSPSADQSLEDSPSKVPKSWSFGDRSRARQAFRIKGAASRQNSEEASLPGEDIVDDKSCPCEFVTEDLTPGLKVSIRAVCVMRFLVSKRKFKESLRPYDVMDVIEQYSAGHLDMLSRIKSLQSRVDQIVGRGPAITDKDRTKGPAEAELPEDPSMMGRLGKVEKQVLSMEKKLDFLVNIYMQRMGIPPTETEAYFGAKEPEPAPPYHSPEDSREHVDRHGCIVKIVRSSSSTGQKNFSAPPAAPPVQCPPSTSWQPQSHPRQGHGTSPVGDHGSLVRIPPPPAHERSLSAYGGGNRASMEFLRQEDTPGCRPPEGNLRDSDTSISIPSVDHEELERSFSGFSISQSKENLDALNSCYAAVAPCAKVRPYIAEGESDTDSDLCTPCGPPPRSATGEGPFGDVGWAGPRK

| SMILES | EC50 [1, 3] [nM] | activation of Kv7.2/7.3 channels as measured by the SyncroPatch platform [1] | also measured |
| --- | --- | --- | --- |
| CCOC(=O)Nc1ccc(N2CCc3cc(C(F)(F)F)ccc3C2)c(F)c1N [Compound 19, ethyl (2-amino-3-fluoro-4-(6-(trifluoromethyl)-3,4-dihydroisoquinolin-2(1H)-yl)phenyl)carbamate] | 1000 to 5000 |  |  |
| C=CCN(Cc1ccc(C(F)(F)F)cc1)c1ccc(NC(=O)OCC)c(N)c1F [Compound 2, ethyl (4-(allyl(4-(trifluoromethyl)benzyl)amino)-2-amino-3-fluorophenyl)carbamate] | 100 to 1000 |  |  |
| CCOC(=O)Nc1ccc(N2CCc3ccc(C(F)(F)F)cc3C2)c(F)c1N [Compound 18, Ethyl (2-amino-3-fluoro-4-(7-(trifluoromethyl)-3,4-dihydroisoquinolin-2(1H)-yl)phenyl)carbamate] | 100 to 1000 |  |  |
| C=CCN(Cc1ccc(F)cc1)c1ccc(NC(=O)OCC)c(N)c1F [Compound 1, ethyl (4-(allyl(4-fluorobenzyl)amino)-2-amino-3-fluorophenyl)carbamate] | 1000 to 5000 |  |  |
| C#CCN(Cc1cccc(C(F)(F)F)c1)c1ccc(NC(=O)OCC)c(N)c1F [Compound 9, ethyl (2-amino-3-fluoro-4-(prop-2-yn-1-yl(3-(trifluoromethyl)benzyl)amino)phenyl)carbamate] | 100 to 1000 |  |  |
| C=CCN(Cc1cccc(C(F)(F)F)c1)c1ccc(NC(=O)OCC)c(N)c1F [Compound 3, ethyl (4-(allyl(3-(trifluoromethyl)benzyl)amino)-2-amino-3-fluorophenyl)carbamate] | 5000 to 25000 |  |  |
| CCOC(=O)Nc1ccc(N2CCc3cc(F)ccc3C2)c(F)c1N [Compound 17, ethyl (2-amino-3-fluoro-4-(6-fluoro-3,4-dihydroisoquinolin-2(1H)-yl)phenyl)carbamate] | 100 to 1000 |  |  |
| C#CCN(Cc1ccc(C(F)(F)F)cc1)c1ccc(NC(=O)OCC)c(N)c1 [Compound 11, ethyl (2-amino-4-(prop-2-yn-1-yl(4-(trifluoromethyl)benzyl)amino)phenyl)carbamate] | 100 to 1000 |  |  |
| C#CCN(Cc1ccc(F)cc1)c1ccc(NC(=O)OCC)c(N)c1 [Compound 10, reference compound] | 1000 to 5000 | dose-dependent activation |  |
| CCOC(=O)Nc1ccc(N2CCc3ccc(F)cc3C2)c(F)c1N [Compound 20, ethyl (2-amino-3-fluoro-4-(7-fluoro-3,4-dihydroisoquinolin-2(1H)-yl)phenyl)carbamate] | 100 to 1000 |  |  |
| C=CCN(Cc1ccc(F)cc1)c1ccc(NC(=O)OCC)c(N)c1 [Compound 4, ethyl (4-(allyl(4-fluorobenzyl)amino)-2-aminophenyl)carbamate] | 100 to 1000 | dose-dependent activation |  |
| C#CCN(Cc1ccc(C(F)(F)F)cc1)c1ccc(NC(=O)OCC)c(N)c1F [Compound 8, ethyl (2-amino-3-fluoro-4-(prop-2-yn-1-yl(4-(trifluoromethyl)benzyl)amino)phenyl)carbamate] | 100 to 1000 | dose-dependent activation |  |
| CCOC(=O)Nc1c(N)cc(NCc2ccc(F)cc2)cc1F [Compound X, reference compound] |  | dose-dependent activation | EC50 [1]: 100 to 1000 nM |
| CCOC(=O)Nc1ccc(N2CCc3ccc(C(F)(F)F)cc3C2)cc1N [Compound 22, ethyl (2-amino-4-(7-(trifluoromethyl)-3,4-dihydroisoquinolin-2(1H)-yl)phenyl)carbamate] | 100 to 1000 |  |  |
| CCOC(=O)Nc1ccc(N2CCc3cc(C(F)(F)F)ccc3C2)cc1N [Compound 23, ethyl (2-amino-4-(6-(trifluoromethyl)-3,4-dihydroisoquinolin-2(1H)-yl)phenyl)carbamate] | 1000 to 5000 |  |  |
| CCOC(=O)Nc1ccc(N2CCc3ccc(F)cc3C2)cc1N [Compound 24, ethyl (2-amino-4-(7-fluoro-3,4-dihydroisoquinolin-2(1H)-yl)phenyl)carbamate] | 1000 to 5000 |  |  |
| C#CCN(Cc1cccc(C(F)(F)F)c1)c1ccc(NC(=O)OCC)c(N)c1 [Compound 12, ethyl (2-amino-4-(prop-2-yn-1-yl(3-(trifluoromethyl)benzyl)amino)phenyl)carbamate] | 100 to 1000 | dose-dependent activation |  |
| CCOC(=O)Nc1ccc(NCc2ccc(F)cc2)cc1N [Ezogabine, ethyl N-[2-amino-4-[(4-fluorophenyl)methylamino]phenyl]carbamate] |  |  | half-life [2]: 8 h |
| C#CCN(Cc1ccc(F)cc1)c1ccc(NC(=O)OCC)c(N)c1F [Compound 7, ethyl (2-amino-3-fluoro-4-((4-fluorobenzyl)(prop-2-yn-1-yl)amino)phenyl)carbamate] | 100 to 1000 | dose-dependent activation |  |
| C=CCN(Cc1cccc(C(F)(F)F)c1)c1ccc(NC(=O)OCC)c(N)c1 [Compound 6, ethyl (4-(allyl(3-(trifluoromethyl)benzyl)amino)-2-aminophenyl)carbamate] | 100 to 1000 | dose-dependent activation |  |
| CCOC(=O)Nc1ccc(N2CCc3cc(F)ccc3C2)cc1N [Compound 21, ethyl (2-amino-4-(6-fluoro-3,4-dihydroisoquinolin-2(1H)-yl)phenyl)carbamate] | 1000 to 5000 |  |  |
